In ChEMBL document CHEMBL4765450, “The components and activities analysis of a novel anticoagulant candidate dHG-5” (Eur J Med Chem, 2020):
Activity calls are given as the source filed them. The rule behind the calls is not given here.

Columns and labels:
[1] = target: T1, Coagulation factor VII (Homo sapiens) (UniProt P08709); assay: Inhibition of factor 7a (unknown origin) at IC50 using pefachrome factor VIIa as substrate preincubated for 1 min followed by chromogenic substrate addition and measured for 2 mins in presence of AT-III; conditions: time 3.0 min
T1 sequence (whole entry): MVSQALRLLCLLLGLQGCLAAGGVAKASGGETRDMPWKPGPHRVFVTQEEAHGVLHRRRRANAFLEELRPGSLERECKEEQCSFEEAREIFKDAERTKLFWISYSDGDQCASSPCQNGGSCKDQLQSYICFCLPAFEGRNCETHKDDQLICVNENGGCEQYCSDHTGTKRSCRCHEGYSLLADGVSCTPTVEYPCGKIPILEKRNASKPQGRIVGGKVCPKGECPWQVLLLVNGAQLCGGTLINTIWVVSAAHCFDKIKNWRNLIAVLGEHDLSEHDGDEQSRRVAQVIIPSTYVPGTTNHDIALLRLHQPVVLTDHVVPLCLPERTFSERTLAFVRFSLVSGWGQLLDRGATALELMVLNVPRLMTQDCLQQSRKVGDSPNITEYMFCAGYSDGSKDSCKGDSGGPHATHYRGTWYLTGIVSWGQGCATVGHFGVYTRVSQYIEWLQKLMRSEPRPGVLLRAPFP

[2] = target: Coagulation factor XI (Homo sapiens) (UniProt P03951); assay: Inhibition of factor 11a (unknown origin) at IC50 using S-2366 as substrate preincubated for 1 min followed by chromogenic substrate addition and measured for 2 mins; conditions: time 3.0 min
Coagulation factor XI (Homo sapiens), sequence (P03951 19-387 limits assumed): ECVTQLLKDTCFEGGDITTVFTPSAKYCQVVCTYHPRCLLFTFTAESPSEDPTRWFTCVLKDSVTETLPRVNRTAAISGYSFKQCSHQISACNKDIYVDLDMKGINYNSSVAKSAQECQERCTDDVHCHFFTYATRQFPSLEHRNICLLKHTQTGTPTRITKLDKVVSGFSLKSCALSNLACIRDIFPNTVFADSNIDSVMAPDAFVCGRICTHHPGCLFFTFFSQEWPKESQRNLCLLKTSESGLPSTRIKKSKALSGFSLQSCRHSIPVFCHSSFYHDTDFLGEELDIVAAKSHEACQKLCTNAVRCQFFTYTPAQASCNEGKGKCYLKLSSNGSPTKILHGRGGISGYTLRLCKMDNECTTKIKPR
Coagulation factor XI (Homo sapiens), sequence (P03951 388-625 limits assumed): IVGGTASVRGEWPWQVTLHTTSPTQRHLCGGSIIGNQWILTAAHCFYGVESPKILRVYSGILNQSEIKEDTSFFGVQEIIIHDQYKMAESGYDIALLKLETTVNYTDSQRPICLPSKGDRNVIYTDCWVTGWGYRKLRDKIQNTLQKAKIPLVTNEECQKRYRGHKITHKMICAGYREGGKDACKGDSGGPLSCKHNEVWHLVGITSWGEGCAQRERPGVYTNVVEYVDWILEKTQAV

[3] = target: T2, Coagulation factor IX/VIII (Homo sapiens) (UniProt P00740+P00451); assay: Inhibition of human citrated plasma iXase (factor 8a-factor 9a complex) assessed as activity potency of oligosaccharides multiplied by the percentage of oligosaccharides in dHG-5 preincubated for 2 mins followed by factor 10 addition and measured after 1 min by FXa chromogenic substrate SXa-11 based assay relative to dHG-5; format: protein-complex assay; conditions: time 3.0 min
[4] = tested on: Plasma; assay: Anticoagulation activity in human plasma assessed as drug level causing 20 times doubling of APTT by measuring activity potency of oligosaccharides multiplied by the percentage of oligosaccharides in dHG-5 preincubated for 2 mins followed by APTT reagent and measured after 3 mins by coagulometric method relative to dHG-5; format: functional; conditions: time 5 min
[5] = tested on: Rattus norvegicus; assay: Antithrombotic activity in thromboplastin and stasis-induced Sprague-Dawley rat deep venous thrombosis model assessed as reduction in venous thrombosis by measuring activity potency of oligosaccharides multiplied by the percentage of oligosaccharides in dHG-5 at 1.84 mg/kg, sc administered 1 hr prior to thromboplastin addition for 20 secs followed by establishment of stasis for 20 mins relative to dHG-5; format: functional; conditions: time 80.33 min, 1.339 h
[6] = target: T2, Coagulation factor IX/VIII (Homo sapiens); assay: Inhibition of human citrated plasma iXase (factor 8a-factor 9a complex) preincubated for 2 mins followed by factor 10 addition and measured after 1 min by FXa chromogenic substrate SXa-11 based assay relative to dHG-5; format: protein-complex assay; conditions: time 3.0 min
[7] = tested on: Plasma; assay: Anticoagulation activity in human plasma assessed as drug level causing 20 times doubling of APTT preincubated for 2 mins followed by APTT reagent and measured after 3 mins by coagulometric method relative to dHG-5; format: functional; conditions: time 5 min
[8] = tested on: Rattus norvegicus; assay: Antithrombotic activity in thromboplastin and stasis-induced Sprague-Dawley rat deep venous thrombosis model assessed as reduction in venous thrombosis at 1.84 mg/kg, sc administered 1 hr prior to thromboplastin addition for 20 secs followed by establishment of stasis for 20 mins relative to dHG-5; format: functional; conditions: time 80.33 min, 1.339 h
[9] = target: T3, Coagulation factor IX (Homo sapiens, UniProt P00740); assay: Inhibition of factor 9a (unknown origin) binding to immobilized biotinylated oHG-11 assessed as activity potency of oligosaccharides multiplied by the percentage of oligosaccharides in dHG-5 by biolayer interferometry relative to dHG-5
T3 sequence (P00740 47-191 limits assumed): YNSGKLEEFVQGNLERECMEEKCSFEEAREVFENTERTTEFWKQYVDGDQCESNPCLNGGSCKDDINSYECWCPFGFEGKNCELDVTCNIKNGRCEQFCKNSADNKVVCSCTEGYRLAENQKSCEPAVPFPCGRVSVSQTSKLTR
T3 sequence (P00740 227-461 limits assumed): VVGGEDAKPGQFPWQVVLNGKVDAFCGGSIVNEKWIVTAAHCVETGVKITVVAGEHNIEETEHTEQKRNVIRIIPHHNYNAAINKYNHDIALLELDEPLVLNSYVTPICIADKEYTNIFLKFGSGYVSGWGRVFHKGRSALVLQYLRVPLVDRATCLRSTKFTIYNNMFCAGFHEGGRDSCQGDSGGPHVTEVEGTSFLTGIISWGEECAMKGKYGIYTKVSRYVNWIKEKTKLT

[10] = target: T4, Coagulation factor XII (Homo sapiens) (UniProt P00748); assay: Inhibition of factor 12a (unknown origin) at IC50 using kallikrein chromogenic substrate preincubated for 1 min followed by chromogenic substrate addition and measured for 2 mins in presence of AT-III; conditions: time 3.0 min
T4 sequence (whole entry): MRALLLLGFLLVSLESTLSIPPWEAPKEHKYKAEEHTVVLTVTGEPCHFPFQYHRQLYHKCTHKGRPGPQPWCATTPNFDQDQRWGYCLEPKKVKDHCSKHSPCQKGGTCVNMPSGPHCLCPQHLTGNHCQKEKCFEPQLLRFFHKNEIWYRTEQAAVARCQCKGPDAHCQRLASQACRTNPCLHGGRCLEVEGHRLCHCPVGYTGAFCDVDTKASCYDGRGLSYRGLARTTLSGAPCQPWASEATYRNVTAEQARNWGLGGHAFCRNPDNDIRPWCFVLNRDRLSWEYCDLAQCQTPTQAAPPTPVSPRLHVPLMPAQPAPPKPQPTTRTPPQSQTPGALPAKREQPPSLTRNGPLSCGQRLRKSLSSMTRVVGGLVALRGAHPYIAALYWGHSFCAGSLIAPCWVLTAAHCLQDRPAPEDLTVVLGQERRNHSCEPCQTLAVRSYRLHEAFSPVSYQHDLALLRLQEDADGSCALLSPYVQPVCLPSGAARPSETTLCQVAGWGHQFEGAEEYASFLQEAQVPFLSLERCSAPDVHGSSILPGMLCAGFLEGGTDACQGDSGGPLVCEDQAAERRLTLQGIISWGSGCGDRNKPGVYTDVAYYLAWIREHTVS

[11] = target: Prothrombin (Homo sapiens) (UniProt P00734); assay: Inhibition of factor 2a (unknown origin) at IC50 preincubated for 1 min followed by chromogenic substrate addition and measured for 2 mins; conditions: time 3.0 min
[12] = target: Coagulation factor X (Homo sapiens) (UniProt P00742); assay: Inhibition of factor 10a (unknown origin) at IC90 preincubated for 1 min followed by chromogenic substrate addition and measured for 2 mins in presence of AT-III relative to control; conditions: time 3.0 min
Coagulation factor X (Homo sapiens), sequence (P00742 41-179 limits assumed): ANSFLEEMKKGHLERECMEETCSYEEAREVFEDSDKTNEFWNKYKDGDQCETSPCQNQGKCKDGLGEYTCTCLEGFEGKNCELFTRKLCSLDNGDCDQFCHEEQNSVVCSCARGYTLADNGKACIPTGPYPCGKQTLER
Coagulation factor X (Homo sapiens), sequence (P00742 235-488 limits assumed): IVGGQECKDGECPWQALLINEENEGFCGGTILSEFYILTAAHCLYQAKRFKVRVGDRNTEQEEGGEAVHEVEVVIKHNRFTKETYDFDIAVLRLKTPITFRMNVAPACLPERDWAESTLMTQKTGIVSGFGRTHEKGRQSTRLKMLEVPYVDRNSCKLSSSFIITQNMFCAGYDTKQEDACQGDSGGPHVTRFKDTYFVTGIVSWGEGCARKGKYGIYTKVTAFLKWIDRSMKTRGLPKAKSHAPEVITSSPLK

[13] = target: T4, Coagulation factor XII (Homo sapiens); assay: Inhibition of factor 12a (unknown origin) at IC50 using kallikrein chromogenic substrate preincubated for 1 min followed by chromogenic substrate addition and measured for 2 mins; conditions: time 3.0 min
[14] = target: Coagulation factor XI (Homo sapiens) (UniProt P03951); assay: Inhibition of factor 11a (unknown origin) at IC90 using S-2366 as substrate preincubated for 1 min followed by chromogenic substrate addition and measured for 2 mins in presence of AT-III; conditions: time 3.0 min
[15] = target: Coagulation factor X (Homo sapiens) (UniProt P00742); assay: Inhibition of factor 10a (unknown origin) at IC50 preincubated for 1 min followed by chromogenic substrate addition and measured for 2 mins in presence of AT-III; conditions: time 3.0 min
[16] = target: T3, Coagulation factor IX; assay: Inhibition of factor 9a (unknown origin) binding to immobilized biotinylated oHG-11 by biolayer interferometry relative to dHG-5
[17] = target: Prothrombin (Homo sapiens) (UniProt P00734); assay: Inhibition of factor 2a (unknown origin) at IC90 preincubated for 1 min followed by chromogenic substrate addition and measured for 2 mins in presence of AT-III; conditions: time 3.0 min
[18] = target: Coagulation factor X (Homo sapiens) (UniProt P00742); assay: Inhibition of factor 10a (unknown origin) at IC50 preincubated for 1 min followed by chromogenic substrate addition and measured for 2 mins; conditions: time 3.0 min
[19] = target: Prothrombin (Homo sapiens) (UniProt P00734); assay: Inhibition of factor 2a (unknown origin) at IC50 preincubated for 1 min followed by chromogenic substrate addition and measured for 2 mins in presence of AT-III; conditions: time 3.0 min
[20] = target: T1, Coagulation factor VII (Homo sapiens); assay: Inhibition of factor 7a (unknown origin) at IC50 using pefachrome factor VIIa as substrate preincubated for 1 min followed by chromogenic substrate addition and measured for 2 mins; conditions: time 3.0 min
[21] = target: Coagulation factor XI (Homo sapiens) (UniProt P03951); assay: Inhibition of factor 11a (unknown origin) at IC50 using S-2366 as substrate preincubated for 1 min followed by chromogenic substrate addition and measured for 2 mins in presence of AT-III; conditions: time 3.0 min

inhibition [1]: inactive
inhibition [2]: inactive
Ratio [3]: 25.4 U
Ratio [6]: 384 U
Ratio [9]: 11.7 U
inhibition [10]: inactive
inhibition [11]: inactive
inhibition [12]: inactive
inhibition [13]: inactive
inhibition [14]: Active
inhibition [15]: inactive
Ratio [16]: 177 U
inhibition [17]: Active
inhibition [18]: inactive
inhibition [19]: inactive
inhibition (active/not active) [20]: inactive
inhibition [21]: inactive
Structure (SMILES): CC(=O)N[C@H]1[C@H](O[C@@H]([C@H](O[C@@H]2O[C@@H](C)[C@@H](OS(=O)(=O)[O-])[C@@H](OS(=O)(=O)O)[C@@H]2O)[C@@H](O)CO)[C@H](O)C(=O)[O-])O[C@H](COS(=O)(=O)[O-])[C@H](OS(=O)(=O)[O-])[C@@H]1O[C@@H]1O[C@H](C(=O)[O-])[C@@H](O[C@@H]2O[C@H](COS(=O)(=O)[O-])[C@H](OS(=O)(=O)[O-])[C@H](O[C@@H]3O[C@H](C(=O)[O-])[C@@H](O[C@@H]4O[C@H](COS(=O)(=O)[O-])[C@H](OS(=O)(=O)[O-])[C@H](O[C@@H]5O[C@H](C(=O)[O-])[C@@H](O[C@@H]6O[C@H](COS(=O)(=O)[O-])[C@H](OS(=O)(=O)[O-])[C@H](O[C@@H]7O[C@H](C(=O)[O-])[C@@H](O[C@@H]8O[C@H](COS(=O)(=O)[O-])[C@H](OS(=O)(=O)[O-])[C@H](O[C@@H]9O[C@H](C(=O)[O-])[C@@H](O[C@@H]%10O[C@H](COS(=O)(=O)[O-])[C@H](OS(=O)(=O)[O-])[C@H](O[C@@H]%11O[C@H](C(=O)[O-])[C@@H](O[C@@H]%12O[C@H](COS(=O)(=O)[O-])[C@H](OS(=O)(=O)[O-])[C@H](O[C@@H]%13OC(C(=O)O)=C[C@H](O[C@@H]%14O[C@@H](C)[C@@H](OS(=O)(=O)[O-])[C@@H](OS(=O)(=O)O)[C@@H]%14O)[C@H]%13O)[C@H]%12NC(C)=O)[C@H](O[C@@H]%12O[C@@H](C)[C@@H](OS(=O)(=O)[O-])[C@@H](OS(=O)(=O)O)[C@@H]%12O)[C@H]%11O)[C@H]%10NC(C)=O)[C@H](O[C@@H]%10O[C@@H](C)[C@@H](OS(=O)(=O)[O-])[C@@H](OS(=O)(=O)O)[C@@H]%10O)[C@H]9O)[C@H]8NC(C)=O)[C@H](O[C@@H]8O[C@@H](C)[C@@H](OS(=O)(=O)[O-])[C@@H](OS(=O)(=O)O)[C@@H]8O)[C@H]7O)[C@H]6NC(C)=O)[C@H](O[C@@H]6O[C@@H](C)[C@@H](OS(=O)(=O)[O-])[C@@H](OS(=O)(=O)O)[C@@H]6O)[C@H]5O)[C@H]4NC(C)=O)[C@H](O[C@@H]4O[C@@H](C)[C@@H](OS(=O)(=O)[O-])[C@@H](OS(=O)(=O)O)[C@@H]4O)[C@H]3O)[C@H]2NC(C)=O)[C@H](O[C@@H]2O[C@@H](C)[C@@H](OS(=O)(=O)[O-])[C@@H](OS(=O)(=O)O)[C@@H]2O)[C@H]1O.[Na+].[Na+].[Na+].[Na+].[Na+].[Na+].[Na+].[Na+].[Na+].[Na+].[Na+].[Na+].[Na+].[Na+].[Na+].[Na+].[Na+].[Na+].[Na+].[Na+].[Na+].[Na+].[Na+].[Na+].[Na+].[Na+].[Na+].[Na+].[Na+]
Ratio [4]: 15.39 U
Ratio [5]: 16.12 U
Ratio [7]: 232.47 U
Ratio [8]: 244.26 U
